Test [1] concerns DU145. The test is described as follows: Proliferation assay (crystal violet), DU145. In kind it is cell-based. To be noted: Homo sapiens, DU-145, 96 h; DU145 cells; 4 days incubation; crystal violet staining; read-out: IC50 inhibition of proliferation, DU145. In short, it runs like this:
(§1)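 Tumor cells seeded at 1000–5000 cells/well in medium with 10% FCS; after 24 h, compounds added at 0.001–10 μM (0.5% DMSO) for 4 days. Cells fixed with glutaraldehyde, stained with crystal violet, dye dissolved in acetic acid and read at 595 nm. IC50 from 4-parameter fit, normalized to zero-point plate and untreated cells.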

Test [2] concerns HeLa-MaTu-ADR. The test is described as follows: Proliferation assay (crystal violet), HeLa-MaTu-ADR. In kind it is cell-based. To be noted: 96 h; HeLa-MaTu-ADR cells; 4 days incubation; crystal violet staining; read-out: IC50 inhibition of proliferation, HeLa-MaTu-ADR. In short, it runs like this:
as §1

For test [3], the system named is B16F10. The test is described as follows: Proliferation assay (crystal violet), B16F10. Type of test: cell-based. The conditions noted are these: Mus musculus, B16-F10, 96 h; B16F10 cells; 4 days incubation; crystal violet staining; read-out: IC50 inhibition of proliferation, B16F10. A digest of the protocol:
as §1

Test [4] relates to NCI-H460. The test is described as follows: Proliferation assay (crystal violet), NCI-H460. Type of test: cell-based. The conditions noted are these: Homo sapiens, 96 h; NCI-H460 cells; 4 days incubation; crystal violet staining; read-out: IC50 inhibition of proliferation, NCI-H460. A digest of the protocol: as §1
Test [5] deals with T1, catalytic domain of human Bub1 (amino acids 704-1085) (Homo sapiens, UniProt O43683).
T1 construct: catalytic domain of human Bub1 (amino acids 704-1085); His6 (N); made in house; host or cells: insect cells (Hi5)
The test is described as follows: Bub1 kinase assay (TR-FRET). Type of test: biochemical. To be noted: 10 μM ATP, avg, read-out: Bub1 avg (IC50 [mol/l]). A digest of the protocol:
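Readout is the 665/620 nm TR-FRET ratio from anti-phosphoserine antibody, Eu-labelled anti-mouse IgG and streptavidin-XL665, scaled between no-enzyme and uninhibited controls. Reaction: 1 μM biotinylated peptide, 10 μM ATP, 60 min, 22 °C, after 15 min compound preincubation with His6-Bub1 (704-1085, insect-expressed, ~200 ng/ml).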

For test [6], the system named is Caco-2. The test is described as follows: Proliferation assay (crystal violet), Caco-2. Type of test: cell-based. The conditions noted are these: Homo sapiens, 96 h; Caco-2 cells; 4 days incubation; crystal violet staining; read-out: IC50 inhibition of proliferation, Caco2. In short, it runs like this: as §1

T1 sequence (O43683 704-1085): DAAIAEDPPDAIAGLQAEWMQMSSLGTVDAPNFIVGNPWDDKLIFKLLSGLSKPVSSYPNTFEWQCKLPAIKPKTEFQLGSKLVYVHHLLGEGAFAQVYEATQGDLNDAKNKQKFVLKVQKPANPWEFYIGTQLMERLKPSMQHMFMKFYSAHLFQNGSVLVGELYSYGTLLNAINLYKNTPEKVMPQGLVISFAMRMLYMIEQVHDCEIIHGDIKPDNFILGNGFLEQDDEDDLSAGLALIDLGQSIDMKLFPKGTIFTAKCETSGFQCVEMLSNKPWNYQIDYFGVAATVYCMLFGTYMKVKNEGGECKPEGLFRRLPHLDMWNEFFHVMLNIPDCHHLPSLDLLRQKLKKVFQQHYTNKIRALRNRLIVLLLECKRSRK

Turning to `Cc1nsc(Nc2ccc(C#N)cn2)c1C(=O)Nc1ccc(OC2CCN(CC(F)(F)F)CC2)nc1` [Example 30, 5-[(5-Cyanopyridin-2-yl)amino]-3-methyl-N-(6-{[1-(2,2,2-trifluoroethyl)piperidin-4-yl]oxy}pyridin-3-yl)-1,2-thiazole-4-carboxamide], the IC50 in test [1] is 640 nM; in test [2], 230 nM; in test [3], 390 nM; in test [4], 310 nM; in test [5], not below 20000 nM; in test [6] it was 350 nM.
Take `Cc1nsc(Nc2cnc3ccccc3n2)c1C(=O)Nc1ccc(OC2CCCN(C(=O)OC(C)(C)C)C2)nc1` (centres unmarked) [Example 31, tert-Butyl 3-{[5-({[3-methyl-5-(quinoxalin-2-ylamino)-1,2-thiazol-4-yl]carbonyl}-amino)pyridin-2-yl]oxy}piperidine-1-carboxylate]: the IC50 in test [1] is 3000 nM; in test [2] it was 880 nM; in test [3], 950 nM; in test [4], 730 nM; in test [5] it was not below 20000 nM; in test [6], 1100 nM.
Turning to `Cc1nsc(Nc2cnc(C(F)(F)F)cn2)c1C(=O)Nc1ccc(F)c(OCC2CCCN(CC(F)(F)F)C2)c1` (centres unmarked) [Example 337, N-(4-fluoro-3-{[1-(2,2,2-trifluoroethyl)piperidin-3-yl]methoxy}phenyl)-3-methyl-5-{[5-(trifluoromethyl)pyrazin-2-yl]amino}-1,2-thiazole-4-carboxamide], in test [5], the IC50 was not below 20000 nM.
On to `Cc1nsc(Nc2cnc(C(F)(F)F)cn2)c1C(=O)Nc1ccc(O[C@H]2CCN(CC(F)(F)F)C[C@@H]2F)nc1` [Example 363, N-(6-{[(3S,4S)-3-fluoro-1-(2,2,2-trifluoroethyl)piperidin-4-yl]oxy}pyridin-3-yl)-3-methyl-5-{[5-(trifluoromethyl)pyrazin-2-yl]amino}-1,2-thiazole-4-carboxamide], for which the IC50 in test [5] was more than 20000 nM.
The same measure, in the same setting: under `Cc1nsc(Nc2cnc(C(F)(F)F)cn2)c1C(=O)Nc1ccc(OC[C@@H]2CCCN(CCC(F)(F)F)C2)nc1` [Example 377, 3-methyl-5-{[5-(trifluoromethyl)pyrazin-2-yl]amino}-N-(6-{[(3R)-1-(3,3,3-trifluoropropyl)piperidin-3-yl]methoxy}pyridin-3-yl)-1,2-thiazole-4-carboxamide] stands more than 20000 nM; under `Cc1nsc(Nc2cnc(C(F)(F)F)cn2)c1C(=O)Nc1ccc(OCC2CCN(CCC(F)(F)F)CC2)nc1` [Example 347, 3-methyl-5-{[5-(trifluoromethyl)pyrazin-2-yl]amino}-N-(6-{[1-(3,3,3-trifluoropropyl)piperidin-4-yl]methoxy}pyridin-3-yl)-1,2-thiazole-4-carboxamide], not below 20000 nM.
Turning to `Cc1nsc(Nc2cc(C#N)ccn2)c1C(=O)Nc1ccc(OC2CCCN(C(=O)OC(C)(C)C)C2)nc1` (centres unmarked) [Example 34, tert-Butyl 3({5-[({5-[(4-cyanopyridin-2-yl)amino]-3-methyl-1,2-thiazol-4-yl}-carbonyl)amino]pyridin-2-yl}oxy)piperidine-1-carboxylate], the IC50 in test [5] was not below 20000 nM.
Still for that read-out and setting: the figure for `Cc1nsc(Nc2cnc(C(F)(F)F)cn2)c1C(=O)Nc1ccc(N2CCN(CC(F)F)CC2)nc1` [Example 359, N-{6-[4-(2,2-difluoroethyl)piperazin-1-yl]pyridin-3-yl}-3-methyl-5-{[5-(trifluoromethyl)pyrazin-2-yl]amino}-1,2-thiazole-4-carboxamide] is more than 20000 nM.
With `CCN1CC[C@H](Oc2ccc(NC(=O)c3c(C)nsc3Nc3cnc(C(F)(F)F)cn3)cn2)[C@@H](F)C1` [Example 365, N-(6-{[(3S,4S)-1-ethyl-3-fluoropiperidin-4-yl]oxy}pyridin-3-yl)-3-methyl-5-{[5-(trifluoromethyl)pyrazin-2-yl]amino}-1,2-thiazole-4-carboxamide], the IC50 in test [5] was determined as 16000 nM.
On the same count and under the same terms, the figure for `Cc1nsc(Nc2cnc(C(F)(F)F)cn2)c1C(=O)Nc1ccc(N2CCN(CCC(F)(F)F)CC2)nc1` [Example 361, 3-methyl-5-{[5-(trifluoromethyl)pyrazin-2-yl]amino}-N-{6-[4-(3,3,3-trifluoropropyl)piperazin-1-yl]pyridin-3-yl}-1,2-thiazole-4-carboxamide] is more than 20000 nM; for `Cc1nsc(Nc2cnc(C(F)(F)F)cn2)c1C(=O)Nc1ccc(F)c(OCC2CCCN(CCC(F)(F)F)C2)c1` (centres unmarked) [Example 338, N-(4-fluoro-3-{[1-(3,3,3-trifluoropropyl)piperidin-3-yl]methoxy}phenyl)-3-methyl-5-{[5-(trifluoromethyl)pyrazin-2-yl]amino}-1,2-thiazole-4-carboxamide] it is not below 20000 nM.
Same read-out and setting: the figure for `Cc1nsc(Nc2cnc(C(F)(F)F)cn2)c1C(=O)Nc1ccc(OCCNCCC(F)(F)F)nc1` [Example 323, 3-methyl-5-{[5-(trifluoromethyl)pyrazin-2-yl]amino}-N-(6-{2-[(3,3,3-trifluoropropyl)amino]ethoxy}pyridin-3-yl)-1,2-thiazole-4-carboxamide] is 18000 nM; for `Cc1nsc(Nc2cnc(C(F)(F)F)cn2)c1C(=O)Nc1ccc(O[C@H]2CCN(CC(F)(F)F)C2)nc1` [Example 383, 3-methyl-N-(6-{[(3S)-1-(2,2,2-trifluoroethyl)pyrrolidin-3-yl]oxy}pyridin-3-yl)-5-{[5-(trifluoromethyl)pyrazin-2-yl]amino}-1,2-thiazole-4-carboxamide] it is not below 20000 nM; for `CCN1CC[C@@H](Oc2ccc(NC(=O)c3c(C)nsc3Nc3cnc(C(F)(F)F)cn3)cn2)[C@H](F)C1` [Example 369, N-(6-{[(3R,4R)-1-ethyl-3-fluoropiperidin-4-yl]oxy}pyridin-3-yl)-3-methyl-5-{[5-(trifluoromethyl)pyrazin-2-yl]amino}-1,2-thiazole-4-carboxamide] it is more than 20000 nM.
On the same count and under the same terms, the figure for `Cc1nsc(Nc2cnc(C(F)(F)F)cn2)c1C(=O)Nc1ccc(F)c(OC[C@H]2CCN(CC(F)(F)F)C2)c1` [Example 398, N-(4-fluoro-3-{[(3S)-1-(2,2,2-trifluoroethyl)pyrrolidin-3-yl]methoxy}phenyl)-3-methyl-5-{[5-(trifluoromethyl)pyrazin-2-yl]amino}-1,2-thiazole-4-carboxamide] is more than 20000 nM.
Regarding `Cc1nsc(Nc2cnc(C(F)(F)F)cn2)c1C(=O)Nc1ccc(O[C@H]2CCN(CC(F)F)C2)nc1` [Example 382, N-(6-{[(3S)-1-(2,2-difluoroethyl)pyrrolidin-3-yl]oxy}pyridin-3-yl)-3-methyl-5-{[5-(trifluoromethyl)pyrazin-2-yl]amino}-1,2-thiazole-4-carboxamide], the IC50 in test [5] is more than 20000 nM.

(Values after patent publication US20170334899A1, “AMINO-SUBSTITUTED ISOTHIAZOLES” (Bayer Pharma Aktiengesellschaft, priority 2014, published 2017).)
